From patent US12624012B2, “14-chloro-β-elemene nitric oxide donor derivative and preparation method and use thereof” (HANGZHOU NORMAL UNIVERSITY, priority 2021, dated 2026)
One block for each compound: values may come before it.

Tests used:
SW620 = experiment: In vitro anti-tumor activity evaluation test (CCK-8), SW620; format: cell-based, human; conditions: Homo sapiens, SW-620, SW620, 72 h; for inhibition at 1 µM: read-out: Inhibitory rates against tumor cell lines
Method: (§1) • (1) Cells were digested and counted. Cell suspensions (H520, SW620 5.0×10^4 cells/mL, and U87MG 3.5×10^4 cells/mL) were prepared. 100 μL of cell suspension was added to each well of a 96-well cell culture plate. • (2) The 96-well cell culture plate was incubated in a 37° C., 5%, CO2 incubator for 24 h. • (3) A drug was diluted with a culture medium to a desired working solution concentration. 100 μL of the corresponding drug-containing culture medium was added to each well. At the same time, a negative control group and a positive control group were set up. • (4) The 96-well cell culture plate was incubated in a 37° C., 5%, CO2 incubator for 72 h. • (5) The 96-well plate was stained with CCK-8, and at λ=450 nm, the OD value was determined. • 1) 10 μL of CCK-8 was added to each well. The culture plate continued to be incubated in the incubator for 2-3 h. • 2) The culture plate was rocked for 10 min to gently mix and remove air bubbles from the 96-well plate. • 3) At λ=450 nm, the OD value of each well was read by the enzyme marker, and the inhibitory rates were calculated. • (6) According to the following equation (1), the growth inhibitory rate of the tumor cells was obtained. The obtained results were substituted into an IC 50 calculation software SPSS17.0 to find out the IC50 value.

[1] = In vitro NO release test (incubation with L-cysteine, OD at 550 nm); conditions: 100 μM solution with cysteine solution, 37° C.
Method: • (1) Sodium nitrite solutions with different concentrations were prepared. A calibration curve was drawn. • (2) The sample was treated. A 100 μM solution was prepared. 2.5 mL of the prepared compound solution and 2.5 mL of the cysteine solution were taken and incubated at 37° C. for 120 min, and the resulting mixture was sampled at different time points. • (3) A blank hole and a standard hole were set. 160 μL of the sample was collected and mixed evenly with 0.08 mL of a developer and stood at 37° C. for 15 min. At λ=550 nm, the OD value of absorbance was measured by the enzyme marker. The NO release levels were obtained by substituting the value into the standard curve.

U87MG = experiment: In vitro anti-tumor activity evaluation test (CCK-8), U87MG; format: cell-based, human; conditions: Homo sapiens, U-87 MG, U87MG, 72 h; for inhibition at 1 µM: read-out: Inhibitory rates against tumor cell lines; for IC50: read-out: IC50 against different tumor cell lines
Method: as §1

NCI-H520 = experiment: In vitro anti-tumor activity evaluation test (CCK-8), NCI-H520; format: cell-based, human; conditions: Homo sapiens, NCI-H520, 72 h; for inhibition at 1 µM: read-out: Inhibitory rates against tumor cell lines; for IC50: read-out: IC50 against different tumor cell lines
Method: as §1

Compound: C=C[C@]1(C)CC[C@@H](C(=C)CN(C)CCOC(=O)CCC(=O)OCCOc2no[n+]([O-])c2S(=O)(=O)c2ccccc2)C[C@H]1C(=C)CCl [Example 1, 4-(2-((4-(2-((2-((1R,3R,4S)-3-(3-chloroprop-1-en-2-yl)-4-methyl-4-vinylcyclohexyl))(methyl)amino)ethyoxyl)-4-oxobutanoyl)oxy)ethyoxyl)-3-(phenylsulfonyl)-1,2,5-oxadiazole 2-oxide]
inhibition at 1 µM (SW620): 30.7 ± 3.5%
NO-release concentrations ([1]; 5 min): 1.73 µM
NO-release concentrations ([1]; 10 min): 2.31 µM
NO-release concentrations ([1]; 20 min): 2.90 µM
NO-release concentrations ([1]; 30 min): 4.04 µM
NO-release concentrations ([1]; 60 min): 7.76 µM
NO-release concentrations ([1]; 90 min): 12.67 µM
NO-release concentrations ([1]; 120 min): 17.21 µM
inhibition at 1 µM (U87MG): 39.5 ± 2.1%
inhibition at 1 µM (NCI-H520): 28.8 ± 0.8%

Compound: C=C[C@]1(C)CC[C@@H](C(=C)CN2CCCC(COC(=O)CCCC(=O)OCC#CCOc3no[n+]([O-])c3S(=O)(=O)c3ccccc3)C2)C[C@H]1C(=C)CCl (stereo partly drawn) [Example 20, 4-((4-((5-((1-(2-((1R,3R,4S)-3-(3-chloroprop-1-en-2-yl)-4-methyl-4-vinylcyclohexyl)allyl)piperidin-3-yl)methoxyl)-5-oxopentanoyl)oxy)but-2-yn-1-yl)oxy)-3-(phenylsulfonyl)-1,2,5-oxadiazole 2-oxide]
inhibition at 1 µM (SW620): 43.2 ± 1.8%
NO-release concentrations ([1]; 5 min): 15.19 µM
NO-release concentrations ([1]; 10 min): 17.57 µM
NO-release concentrations ([1]; 20 min): 21.33 µM
NO-release concentrations ([1]; 30 min): 25.52 µM
NO-release concentrations ([1]; 60 min): 39.29 µM
NO-release concentrations ([1]; 90 min): 58.12 µM
NO-release concentrations ([1]; 120 min): 77.28 µM
inhibition at 1 µM (U87MG): 53.9 ± 0.6%
IC50 (U87MG): 1110 ± 52 nM
inhibition at 1 µM (NCI-H520): 44.5 ± 2.4%
IC50 (NCI-H520): 1180 ± 66 nM

Compound: C=C[C@]1(C)CC[C@@H](C(=C)CN2CCN(CCOC(=O)CCC(=O)OCCOc3no[n+]([O-])c3S(=O)(=O)c3ccccc3)CC2)C[C@H]1C(=C)CCl [Example 21, 4-(2-((4-(2-(4-(2-((1R,3R,4S)-3-(3-chloroprop-1-en-2-yl)-4-methyl-4-vinylcyclohexyl)allyl)piperazin-1-yl)ethyoxyl)-4-oxobutanoyl)oxy)ethyoxyl)-3-(phenylsulfonyl)-1,2,5-oxadiazole 2-oxide]
inhibition at 1 µM (SW620): 43.6 ± 2.5%
NO-release concentrations ([1]; 5 min): 0.08 µM
NO-release concentrations ([1]; 10 min): 0.41 µM
NO-release concentrations ([1]; 20 min): 0.99 µM
NO-release concentrations ([1]; 30 min): 1.64 µM
NO-release concentrations ([1]; 60 min): 2.98 µM
NO-release concentrations ([1]; 90 min): 6.43 µM
NO-release concentrations ([1]; 120 min): 10.20 µM
inhibition at 1 µM (U87MG): 52.6 ± 1%
IC50 (U87MG): 926 ± 52 nM
inhibition at 1 µM (NCI-H520): 47.3 ± 2.6%

Compound: C=C[C@]1(C)CC[C@@H](C(=C)CN2CC[C@H](OC(=O)CCC(=O)OCC#CCOc3no[n+]([O-])c3S(=O)(=O)c3ccccc3)C2)C[C@H]1C(=C)CCl [Example 11, 4-((4-((4-(((S)-1-(2-((1R,3R,4S)-3-(3-chloroprop-1-en-2-yl)-4-methyl-4-vinylcyclohexyl)allyl)pyrrolidine-3-ly)oxy)-4-oxobutanoyl)oxy)but-2-yn-1-yl)oxy)-3-(phenylsulfonyl)-1,2,5-oxadiazole 2-oxide]
inhibition at 1 µM (SW620): 30.5 ± 3.3%
NO-release concentrations ([1]; 5 min): 9.49 µM
NO-release concentrations ([1]; 10 min): 10.79 µM
NO-release concentrations ([1]; 20 min): 14.43 µM
NO-release concentrations ([1]; 30 min): 15.99 µM
NO-release concentrations ([1]; 60 min): 24.58 µM
NO-release concentrations ([1]; 90 min): 37.37 µM
NO-release concentrations ([1]; 120 min): 50.99 µM
inhibition at 1 µM (U87MG): 42 ± 6.5%
inhibition at 1 µM (NCI-H520): 46 ± 1%
IC50 (NCI-H520): 1020 ± 41 nM

Compound: C=C[C@]1(C)CC[C@@H](C(=C)CN2CCCC(COC(=O)CCCC(=O)OCCOc3no[n+]([O-])c3S(=O)(=O)c3ccccc3)C2)C[C@H]1C(=C)CCl (stereo partly drawn) [Example 18, 4-(2-((5-((1-(2-((1R,3R,4S)-3-(3-chloroprop-1-en-2-yl)-4-methyl-4-vinylcyclohexyl)allyl)piperidin-3-yl)methoxyl)-5-oxopentanoyl)oxy)ethyoxyl)-3-(phenylsulfonyl)-1,2,5-oxadiazole 2-oxide]
inhibition at 1 µM (SW620): 46.1 ± 0.9%
NO-release concentrations ([1]; 5 min): 8.89 µM
NO-release concentrations ([1]; 10 min): 10.18 µM
NO-release concentrations ([1]; 20 min): 12.42 µM
NO-release concentrations ([1]; 30 min): 14.32 µM
NO-release concentrations ([1]; 60 min): 21.50 µM
NO-release concentrations ([1]; 90 min): 32.40 µM
NO-release concentrations ([1]; 120 min): 42.83 µM
inhibition at 1 µM (U87MG): 48.3 ± 1.5%
inhibition at 1 µM (NCI-H520): 43.9 ± 1%
IC50 (NCI-H520): 1210 ± 152 nM

Further compounds by falling IC50 (U87MG), results first:

IC50 (U87MG): 898 ± 54 nM
Compound: C=C[C@]1(C)CC[C@@H](C(=C)CN2CCC(OC(=O)CCCC(=O)OCC#CCOc3no[n+]([O-])c3S(=O)(=O)c3ccccc3)C2)C[C@H]1C(=C)CCl (stereo partly drawn) [Example 12, 4-((4-((5-(((S)-1-(2-((1R,3R,4S)-3-(3-chloroprop-1-en-2-yl)-4-methyl-4-vinylcyclohexyl)allyl)pyrrolidine-3-ly)oxy)-5-oxopentanoyl)oxy)but-2-yn-1-yl)oxy)-3-(phenylsulfonyl)-1,2,5-oxadiazole 2-oxide]
inhibition at 1 µM (SW620): 31.7 ± 1.4%
NO-release concentrations ([1]; 5 min): 13.20 µM
NO-release concentrations ([1]; 10 min): 16.04 µM
NO-release concentrations ([1]; 20 min): 21.29 µM
NO-release concentrations ([1]; 30 min): 26.90 µM
NO-release concentrations ([1]; 60 min): 46.58 µM
NO-release concentrations ([1]; 90 min): 74.45 µM
NO-release concentrations ([1]; 120 min): 103.92 µM
inhibition at 1 µM (U87MG): 47.8 ± 1.1%
inhibition at 1 µM (NCI-H520): 39.1 ± 0.7%

IC50 (U87MG): 372 ± 6 nM
IC50 (NCI-H520): 962 ± 54 nM
Compound: C=C[C@]1(C)CC[C@@H](C(=C)CN2CCN(CCOC(=O)CCCC(=O)OCCOc3no[n+]([O-])c3S(=O)(=O)c3ccccc3)CC2)C[C@H]1C(=C)CCl [Example 22]
inhibition at 1 µM (SW620): 42.8 ± 0.5%
NO-release concentrations ([1]; 5 min): 0.33 µM
NO-release concentrations ([1]; 10 min): 0.90 µM
NO-release concentrations ([1]; 20 min): 1.35 µM
NO-release concentrations ([1]; 30 min): 1.91 µM
NO-release concentrations ([1]; 60 min): 4.05 µM
NO-release concentrations ([1]; 90 min): 7.20 µM
NO-release concentrations ([1]; 120 min): 10.51 µM
inhibition at 1 µM (U87MG): 52.4 ± 2%
inhibition at 1 µM (NCI-H520): 44.1 ± 2.4%

IC50 (U87MG): 366 ± 19 nM
Compound: C=C[C@]1(C)CC[C@@H](C(=C)CN(CCOC(=O)CCCC(=O)OCCOc2no[n+]([O-])c2S(=O)(=O)c2ccccc2)C(C)C)C[C@H]1C(=C)CCl [Example 6]
inhibition at 1 µM (SW620): 35.6 ± 2.8%
NO-release concentrations ([1]; 5 min): 3.38 µM
NO-release concentrations ([1]; 10 min): 5.87 µM
NO-release concentrations ([1]; 20 min): 4.62 µM
NO-release concentrations ([1]; 30 min): 6.22 µM
NO-release concentrations ([1]; 60 min): 9.97 µM
NO-release concentrations ([1]; 90 min): 15.53 µM
NO-release concentrations ([1]; 120 min): 20.60 µM
inhibition at 1 µM (U87MG): 54.3 ± 1.3%
inhibition at 1 µM (NCI-H520): 43.4 ± 1.5%

IC50 (U87MG): 358 ± 23 nM
IC50 (NCI-H520): 777 ± 24 nM
Compound: C=C[C@]1(C)CC[C@@H](C(=C)CN(C)CCOC(=O)CCCC(=O)OCCOc2no[n+]([O-])c2S(=O)(=O)c2ccccc2)C[C@H]1C(=C)CCl [Example 2, 4-(2-((5-(2-((2-((1R,3R,4S)-3-(3-chloroprop-1-en-2-yl)-4-methyl-4-vinylcyclohexyl)allyl)(methyl)amino)ethyoxyl)-5-oxopentanoyl)oxy)ethyoxyl)-3-(phenylsulfonyl)-1,2,5-oxadiazole 2-oxide]
inhibition at 1 µM (SW620): 42.3 ± 3.7%
NO-release concentrations ([1]; 5 min): 2.10 µM
NO-release concentrations ([1]; 10 min): 2.40 µM
NO-release concentrations ([1]; 20 min): 2.84 µM
NO-release concentrations ([1]; 30 min): 3.79 µM
NO-release concentrations ([1]; 60 min): 6.74 µM
NO-release concentrations ([1]; 90 min): 10.72 µM
NO-release concentrations ([1]; 120 min): 14.97 µM
inhibition at 1 µM (U87MG): 56 ± 2.1%
inhibition at 1 µM (NCI-H520): 48.5 ± 3%

IC50 (SW620; read-out: IC50 against different tumor cell lines): 1020 ± 90 nM
IC50 (U87MG): 343 ± 29 nM
IC50 (NCI-H520): 848 ± 53 nM
Compound: C=C[C@]1(C)CC[C@@H](C(=C)CN2CC[C@H](OC(=O)CCCC(=O)OCCOc3no[n+]([O-])c3S(=O)(=O)c3ccccc3)C2)C[C@H]1C(=C)CCl [Example 10]
inhibition at 1 µM (SW620): 45.9 ± 3.9%
NO-release concentrations ([1]; 5 min): 8.39 µM
NO-release concentrations ([1]; 10 min): 9.44 µM
NO-release concentrations ([1]; 20 min): 10.65 µM
NO-release concentrations ([1]; 30 min): 12.22 µM
NO-release concentrations ([1]; 60 min): 18.15 µM
NO-release concentrations ([1]; 90 min): 26.49 µM
NO-release concentrations ([1]; 120 min): 34.97 µM
inhibition at 1 µM (U87MG): 53.1 ± 1.4%
inhibition at 1 µM (NCI-H520): 46.7 ± 2%
